Strand notation (5' to 3'): a small letter for the sugar, then the base; units joined by * are phosphorothioate-linked, units joined directly phosphodiester-linked; [ ] holds rarer units or linkages, { } end groups; capitals alone tell only the bases. e = 2'-O-(2-methoxyethyl) (MOE); [5mC] = 5-methylcytosine; d = 2'-deoxy (DNA)
The substances below were run on rat RANKL mRNA (assay: Antisense inhibition of rat RANKL mRNA levels in UMR-106 cells, quantitative real-time PCR (Table 3)). Conditions: averages from three experiments.
Format: cell-based
Parameters: concentration or dose not given beside the values
Experimental: Cells were seeded onto 24-well plates (Falcon-353047) at a density of […] for use in antisense oligonucleotide transfection.
Cells are treated and data are obtained in triplicate. […] Cells were harvested 16-24 hours after oligonucleotide treatment.
PCR reagents were obtained from Invitrogen Corporation, (Carlsbad, Calif.).
Probes and primers to rat RANKL were designed to hybridize to a rat RANKL sequence, using published sequence information (GenBank accession number NM_057149.1, incorporated herein as SEQ ID NO:18). For rat RANKL the PCR primers were: • forward primer: […] (SEQ ID NO:19) • reverse primer: […] (SEQ ID NO: 20) and the • PCR probe was: FAM-[…]-TAMRA (SEQ ID NO: 21) where FAM is the fluorescent reporter dye and TAMRA is the quencher dye. For rat GAPDH the PCR primers were: • forward primer: […](SEQ ID NO:22) • reverse primer: […](SEQ ID NO:23) and the • PCR probe was: 5′ JOE-[…]-TAMRA 3′ (SEQ ID NO: 24) where JOE is the fluorescent reporter dye and TAMRA is the quencher dye.
In accordance with the present invention, a second series of antisense compounds was designed to target different regions of the rat RANKL RNA, using published sequences (GenBank accession number NM_057149.1, incorporated herein as SEQ ID NO: 18, and GenBank accession number AF425669.1, incorporated herein as SEQ ID NO: 200). […] All cytidine residues are 5-methylcytidines. […] If present, “N.D.” indicates “no data”.

Substance | % INHIB (inhibition of rat RANKL mRNA levels)
aacctgtattttcacggagt (eA*eA*e[5mC]*e[5mC]*eT*dG*dT*dA*dT*dT*dT*dT*d[5mC]*dA*d[5mC]*eG*eG*eA*eG*eT; antisense) [ISIS 286602, 2′-MOE gapmer targeted to rat RANKL] | at least 40%
acagagcgatgctgcagacc (antisense eA*e[5mC]*eA*eG*eA*dG*d[5mC]*dG*dA*dT*dG*d[5mC]*dT*dG*d[5mC]*eA*eG*eA*e[5mC]*e[5mC]) [ISIS 286589, 2′-MOE gapmer targeted to rat RANKL] | at least 40%
accatcagctgaagatagtc (eA*e[5mC]*e[5mC]*eA*eT*d[5mC]*dA*dG*d[5mC]*dT*dG*dA*dA*dG*dA*eT*eA*eG*eT*e[5mC]; antisense) [ISIS 286629, 2′-MOE gapmer targeted to rat RANKL] | at least 40%
acccttagttttccgttgct (eA*e[5mC]*e[5mC]*e[5mC]*eT*dT*dA*dG*dT*dT*dT*dT*d[5mC]*d[5mC]*dG*eT*eT*eG*e[5mC]*eT; antisense) [ISIS 286618, 2′-MOE gapmer targeted to rat RANKL] | at least 40%
acttatttgcaggttccagc (eA*e[5mC]*eT*eT*eA*dT*dT*dT*dG*d[5mC]*dA*dG*dG*dT*dT*e[5mC]*e[5mC]*eA*eG*e[5mC]; antisense) [ISIS 286654, 2′-MOE gapmer targeted to rat RANKL] | at least 40%
agaggacagactgactttat (eA*eG*eA*eG*eG*dA*d[5mC]*dA*dG*dA*d[5mC]*dT*dG*dA*d[5mC]*eT*eT*eT*eA*eT; antisense) [ISIS 286611, 2′-MOE gapmer targeted to rat RANKL] | at least 40%
aggttctcagtggcacaggc (eA*eG*eG*eT*eT*d[5mC]*dT*d[5mC]*dA*dG*dT*dG*dG*d[5mC]*dA*e[5mC]*eA*eG*eG*e[5mC]; antisense) [ISIS 286651, 2′-MOE gapmer targeted to rat RANKL] | at least 40%
agtcgagtcctgcaaacctg (eA*eG*eT*e[5mC]*eG*dA*dG*dT*d[5mC]*d[5mC]*dT*dG*d[5mC]*dA*dA*eA*e[5mC]*e[5mC]*eT*eG; antisense) [ISIS 286603, 2′-MOE gapmer targeted to rat RANKL] | at least 40%
agttttccgttgcttaacgt (eA*eG*eT*eT*eT*dT*d[5mC]*d[5mC]*dG*dT*dT*dG*d[5mC]*dT*dT*eA*eA*e[5mC]*eG*eT; antisense) [ISIS 286617, 2′-MOE gapmer targeted to rat RANKL] | at least 40%
atcttggcccagcctcgatc (eA*eT*e[5mC]*eT*eT*dG*dG*d[5mC]*d[5mC]*d[5mC]*dA*dG*d[5mC]*d[5mC]*dT*e[5mC]*eG*eA*eT*e[5mC]; antisense) [ISIS 286614, 2′-MOE gapmer targeted to rat RANKL] | at least 40%
atcttggttaacccttagtt (eA*eT*e[5mC]*eT*eT*dG*dG*dT*dT*dA*dA*d[5mC]*d[5mC]*d[5mC]*dT*eT*eA*eG*eT*eT; antisense) [ISIS 286620, 2′-MOE gapmer targeted to rat RANKL] | at least 40%
caggaacagagcgatgctgc (e[5mC]*eA*eG*eG*eA*dA*d[5mC]*dA*dG*dA*dG*d[5mC]*dG*dA*dT*eG*e[5mC]*eT*eG*e[5mC]; antisense) [ISIS 286590, 2′-MOE gapmer targeted to rat RANKL] | at least 40%
ccattgtgtgatcaccatga (e[5mC]*e[5mC]*eA*eT*eT*dG*dT*dG*dT*dG*dA*dT*d[5mC]*dA*d[5mC]*e[5mC]*eA*eT*eG*eA; antisense) [ISIS 286648, 2′-MOE gapmer targeted to rat RANKL] | at least 40%
cccaaagtacgtcgcatctt (e[5mC]*e[5mC]*e[5mC]*eA*eA*dA*dG*dT*dA*d[5mC]*dG*dT*d[5mC]*dG*d[5mC]*eA*eT*e[5mC]*eT*eT; antisense) [ISIS 286639, 2′-MOE gapmer targeted to rat RANKL] | at least 40%
cgcgtgctgtcttctgatat (e[5mC]*eG*e[5mC]*eG*eT*dG*d[5mC]*dT*dG*dT*d[5mC]*dT*dT*d[5mC]*dT*eG*eA*eT*eA*eT; antisense) [ISIS 286599, 2′-MOE gapmer targeted to rat RANKL] | at least 40%
ctctgcaatgtaacggtacc (e[5mC]*eT*e[5mC]*eT*eG*d[5mC]*dA*dA*dT*dG*dT*dA*dA*d[5mC]*dG*eG*eT*eA*e[5mC]*e[5mC]; antisense) [ISIS 286652, 2′-MOE gapmer targeted to rat RANKL] | at least 40%
ctgcgctcgaaagtacagga (e[5mC]*eT*eG*e[5mC]*eG*d[5mC]*dT*d[5mC]*dG*dA*dA*dA*dG*dT*dA*e[5mC]*eA*eG*eG*eA; antisense) [ISIS 286593, 2′-MOE gapmer targeted to rat RANKL] | at least 40%
cttagtagtcttacacatgt (e[5mC]*eT*eT*eA*eG*dT*dA*dG*dT*d[5mC]*dT*dT*dA*d[5mC]*dA*e[5mC]*eA*eT*eG*eT; antisense) [ISIS 286645, 2′-MOE gapmer targeted to rat RANKL] | at least 40%
cttgggattttgatgctggt (e[5mC]*eT*eT*eG*eG*dG*dA*dT*dT*dT*dT*dG*dA*dT*dG*e[5mC]*eT*eG*eG*eT; antisense) [ISIS 286632, 2′-MOE gapmer targeted to rat RANKL] | at least 40%
ctttgaaagccccaaagtac (e[5mC]*eT*eT*eT*eG*dA*dA*dA*dG*d[5mC]*d[5mC]*d[5mC]*d[5mC]*dA*dA*eA*eG*eT*eA*e[5mC]; antisense) [ISIS 286641, 2′-MOE gapmer targeted to rat RANKL] | at least 40%
gacctgtacagggtcgagag (eG*eA*e[5mC]*e[5mC]*eT*dG*dT*dA*d[5mC]*dA*dG*dG*dG*dT*d[5mC]*eG*eA*eG*eA*eG; antisense) [ISIS 286647, 2′-MOE gapmer targeted to rat RANKL] | at least 40%
gatattctgttaggatccat (eG*eA*eT*eA*eT*dT*d[5mC]*dT*dG*dT*dT*dA*dG*dG*dA*eT*e[5mC]*e[5mC]*eA*eT; antisense) [ISIS 286597, 2′-MOE gapmer targeted to rat RANKL] | at least 40%
gcaaatgttggcgtacaggt (eG*e[5mC]*eA*eA*eA*dT*dG*dT*dT*dG*dG*d[5mC]*dG*dT*dA*e[5mC]*eA*eG*eG*eT; antisense) [ISIS 286627, 2′-MOE gapmer targeted to rat RANKL] | at least 40%
gcatatccatgctaaggctc (eG*e[5mC]*eA*eT*eA*dT*d[5mC]*d[5mC]*dA*dT*dG*d[5mC]*dT*dA*dA*eG*eG*e[5mC]*eT*e[5mC]; antisense) [ISIS 286643, 2′-MOE gapmer targeted to rat RANKL] | at least 40%
gcgatgctgcagaccacctg (antisense eG*e[5mC]*eG*eA*eT*dG*d[5mC]*dT*dG*d[5mC]*dA*dG*dA*d[5mC]*d[5mC]*eA*e[5mC]*e[5mC]*eT*eG) [ISIS 286588, 2′-MOE gapmer targeted to rat RANKL] | at least 40%
gcgcaggtacttgccgtagt (antisense eG*e[5mC]*eG*e[5mC]*eA*dG*dG*dT*dA*d[5mC]*dT*dT*dG*d[5mC]*d[5mC]*eG*eT*eA*eG*eT) [ISIS 286587, 2′-MOE gapmer targeted to rat RANKL] | at least 40%
gcgtacaggtaatagaagcc (eG*e[5mC]*eG*eT*eA*d[5mC]*dA*dG*dG*dT*dA*dA*dT*dA*dG*eA*eA*eG*e[5mC]*e[5mC]; antisense) [ISIS 286625, 2′-MOE gapmer targeted to rat RANKL] | at least 40%
ggtacttgccgtagtctcgg (antisense eG*eG*eT*eA*e[5mC]*dT*dT*dG*d[5mC]*d[5mC]*dG*dT*dA*dG*dT*e[5mC]*eT*e[5mC]*eG*eG) [ISIS 286586, 2′-MOE gapmer targeted to rat RANKL] | at least 40%
ggttaacccttagttttccg (eG*eG*eT*eT*eA*dA*d[5mC]*d[5mC]*d[5mC]*dT*dT*dA*dG*dT*dT*eT*eT*e[5mC]*e[5mC]*eG; antisense) [ISIS 286619, 2′-MOE gapmer targeted to rat RANKL] | at least 40%
gtcttacacatgtatctaca (eG*eT*e[5mC]*eT*eT*dA*d[5mC]*dA*d[5mC]*dA*dT*dG*dT*dA*dT*e[5mC]*eT*eA*e[5mC]*eA; antisense) [ISIS 286644, 2′-MOE gapmer targeted to rat RANKL] | at least 40%
